Source: patent publication US7420031B2, “Intracellular delivery of small molecules, proteins, and nucleic acids” (Lonza Walkersville, Inc., priority 2003, dated 2008)
Where a SMILES comes first, the peptide text is derived from it. Where no end group is shown, it is not given here. The star is where a group is joined. Biotin = O=C1N[C@H]2[C@H](CS[C@H]2CCCCC(=O)*)N1

How the values were obtained:
NIH 3T3 cells [1] = settings: PTD without cargo moiety, 0-1000 nM (nanomolar range), 48 hours
Procedure: PTDs (SEQ ID NOS:7 and 10), in the absence of a cargo moiety, were added to NIH 3T3 cultures at final concentrations ranging from 0-1000 nM to determine if the PTDs were cytotoxic. NIH 3T3 cells were seeded and incubated overnight, and the peptides were added to the cultures. The cells were incubated for 48 hours, and cell viability was determined using an Alamar blue assay.

[2] = Mi et al., Mol. Ther., 2:339-347, 2000; cited from earlier work
293 HEK cells = experiment: PTD-mediated transport of streptavidin-β-galactosidase into 293 HEK cells (lysate absorbance at 405 nm); type: cell-based; settings: 50 nM complex with streptavidin-β-galactosidase, 30 minutes at 37° C.
Procedure: To determine the effect of biotin location on transduction efficiency, biotin was added to either the amino terminus or the carboxy terminus of three PTDs. A (Gly)3 linker was added to the amino terminus for N-terminal biotinylated peptides. For C-terminal biotinylation, the last glycine in the C-terminal linker was replaced by lysine. The side chain of lysine was used for the attachment of the biotin group. A peptide with negligible transduction activity (Mi et al., Mol. Ther., 2:339-347, 2000) (SEQ ID NO:6) was used as a negative control. PTDs and β-galactosidase were complexed together with a streptavidin-biotin bridge.
To test for transduction efficiency, 293 HEK cells were seeded into a 96-well plate at approximately 4500 cells/well and incubated overnight. To prepare peptide complexes, equimolar concentrations of biotinylated PTD and streptavidin-crosslinked β-galactosidase were mixed and diluted in cell culture medium. The mixtures were incubated for 30 minutes at 37° C. to allow formation of complexes. Each complex was added to a final concentration of 50 nM and incubated for 30 minutes at 37° C. To assay for β-galactosidase activity, the cells were washed 3 times with PBS and were lysed with 100 μl of assay reagent (Pierce). […] The absorbance at 405 nm was measured on a Wallac Victor spectroluminometer.

human dermal fibroblasts = experiment: Histochemical staining for β-galactosidase in cells transduced with PTD complex; type: cell-based; settings: 50 nM complex with streptavidin-β-galactosidase, 1 hour at 37° C., light microscopy
Procedure: To determine the efficiency of transduction based on the percentage of cells that receive the reporter protein, cells were assayed by histochemical staining for the reporter protein.
HUVEC and human dermal fibroblast cells were each seeded at 40,000 per well of a 24-well plate and incubated overnight. PTD complexes (SEQ ID NO:7-streptavidin-β-galactosidase or SEQ ID NO:6-streptavidin-β-galactosidase) were added to the wells at a final concentration of 50 nM and incubated for 1 hour at 37° C. The cells were washed 3 times in PBS, fixed, and stained for β-galactosidase using a β-galactosidase staining set (Roche) according to the manufacturer's instructions. Following development of β-galactosidase activity, the cells were washed with PBS and visualized by light microscopy.

NIH 3T3 cells [3] = settings: 20 nM complex with streptavidin-linked β-galactosidase, 1 hour at 37° C.
Procedure: To determine the intracellular location of the complex, cells were immunostained for streptavidin. NIH 3T3 cells were seeded into 24-well tissue culture plates and incubated overnight. The cells were treated with 20 nM PTD-cargo moiety complex comprising the polypeptide sequence shown in SEQ ID NO:14 and streptavidin-linked β-galactosidase for 1 hour at 37° C. The cells were washed 3 times with PBS, and non-specific binding was blocked by a 30 minute incubation with normal goat serum at room temperature. Mouse anti-streptavidin monoclonal antibody (Monosan, Catalog No. 5043) was diluted to 1 μg/ml with PBS containing 20% normal goat serum. The diluted monoclonal antibody was added to the cells, and the cells were incubated for 1 hour at room temperature.
The cells were washed 3 times with PBS and a secondary Alexa Fluor 568 conjugated goat anti-mouse IgG (Molecular Probes, Catalog No. A-11019) was diluted 1:200 in PBS with 20% normal goat serum. Following a 30 minute incubation at room temperature, the cells were washed 3 times with PBS and visualized by fluorescent microscopy.

NIH 3T3 cells [4] = settings: 20 nM complex with streptavidin-β-galactosidase, 1 hour at 37° C.
Procedure: The transport activities of PTDs were compared to determine if introduction of a nuclear localization signal affect translocation of a PTD-cargo moiety complex. The cargo moiety was streptavidin-linked β-galactosidase. The cargo moiety was streptavidin-linked β-galactosidase. The peptides differed by the position of the nuclear localization signal. The nuclear localization signal was located on the amino terminus (down-stream of a lysine linker) or the carboxy terminus. NIH 3T3 cells were seeded as described above. Each PTD complex was added to a final concentration of 20 nM, and the cells were incubated for 1 hour at 37° C. Following incubation, the cells were washed 3 times in PBS and assayed for nuclear localization of β-galactosidase. β-galactosidase activity was measured at 405 nm in a colorimetric assay.
Peptides containing two nuclear localization signals were tested to study the role of the multiple nuclear localization signals on peptide transport. NIH 3T3 cells were seeded as described above. A PTD-β-galactosidase complex was added to a final concentration of 20 nM, and the cells were incubated for 1 hour at 37° C. Following incubation, the cells were washed 3 times in PBS and assayed for nuclear localization of β-galactosidase.

NIH 3T3 cells [5] = experiment: PTD-β-galactosidase transduction into NIH 3T3 cells (lysate absorbance at 405 nm); type: cell-based; settings: general statement in description
Procedure: N-terminally biotinylated direct and inverted isomers were compared to determine the transduction efficiency of inverted isomers of PTDs. PTDs and β-galactosidase were complexed together with a streptavidin-biotin bridge. NIH 3T3 cells were seeded into a 96-well plate and incubated as described above. The PTD-β-galactosidase complexes were formed (as described in Example 1) and added to a final concentration of 12.5 nM. […] The lysis reaction was stopped and the absorbance at 405 nm was measured. The transduction activity of inverted isomers is stronger than the transduction activity of direct PTDs.
The activities of 2 PTDs were compared to determine if the introduction of a lysine residue juxtaposed to the biotin moiety affects transduction activity. The pairs of peptides differed by a glycine to lysine substitution within the biotin peptide linker. PTDs and β-galactosidase were complexed together with a streptavidin-biotin bridge. NIH 3T3 cells were seeded as described above. […] The lysis reaction was stopped, and the absorbance at 405 nm was measured. The presence of a lysine residue juxtaposed to the biotin caused about a two-fold enhancement in transduction activity.
To further study the role of the lysine residue located in the biotin linker, the indirect PTDs and the direct PTDs with a lysine residue in the linker were compared. […]

plasma membrane = settings: Wender et al., Proc. Natl. Acad. Sci USA 97:13003-13008, 2000; cited from earlier work

N=C(N)NCCC[C@H](NC(=O)CNC(=O)[C@@H](N)Cc1ccc(O)cc1)C(=O)N[C@@H](CCCCN)C(=O)N[C@@H](CCCCN)C(=O)N[C@@H](CCCNC(=N)N)C(=O)N[C@@H](CCCNC(=N)N)C(=O)N[C@@H](CCC(N)=O)C(=O)N[C@@H](CCCNC(=N)N)C(=O)N[C@@H](CCCNC(=N)N)C(=O)N[C@@H](CCCNC(=N)N)C(=O)NCC(=O)NCC(=O)N[C@@H](CCCCNC(=O)CCCC[C@@H]1SC[C@@H]2NC(=O)N[C@@H]21)C(=O)O [SEQ ID NO:8, Tyr-Gly-Arg-Lys-Lys-Arg-Arg-Gln-Arg-Arg-Arg-Gly-Gly-Lys-Biotin]
effect on cell growth / cell viability (NIH 3T3 cells [1]): did not inhibit cell growth

CSCC[C@H](NC(=O)[C@H](CC(C)C)NC(=O)[C@H](CCCCN)NC(=O)[C@H](CO)NC(=O)[C@@H](NC(=O)[C@H](CCCNC(=N)N)NC(=O)[C@H](CCCNC(=N)N)NC(=O)[C@H](CCC(N)=O)NC(=O)[C@H](CCCNC(=N)N)NC(=O)[C@@H](N)CCCNC(=N)N)[C@@H](C)O)C(=O)N[C@@H](CCCCN)C(=O)N[C@@H](CCCNC(=N)N)C(=O)NCC(=O)NCC(=O)N[C@@H](CCCCNC(=O)CCCC[C@@H]1SC[C@@H]2NC(=O)N[C@@H]21)C(=O)O [SEQ ID NO:11, Arg-Arg-Gln-Arg-Arg-Thr-Ser-Lys-Leu-Met-Lys-Arg-Gly-Gly-Lys-Biotin] (H-RRQRRTSKLMKRGGK(Biotin)-OH)
effect on cell growth / cell viability (NIH 3T3 cells [1]): did not inhibit cell growth

Biotin-GGARPLEHGSDKAT [SEQ ID NO:6]
transduction activity [2]: negligible

Biotin-GGGYARAAARQARA [SEQ ID NO:9]
function as a PTD (amount of β-galactosidase in the cell lysate vs negative control SEQ ID NO:6) (293 HEK cells): did not function as a PTD

Biotin-Gly-Gly-Gly-Tyr-Gly-Arg-Lys-Lys-Arg-Arg-Gln-Arg-Arg-Arg [SEQ ID NO:7]
β-galactosidase reporter protein staining of cells (human dermal fibroblasts): positive

Biotin-KGGRKMLKSTRRQRR [SEQ ID NO:14]
intracellular location of the complex (NIH 3T3 cells [3]): localized to the cytoplasm

Biotin-KGGRKMLKSTRRQRRKKKRKV [SEQ ID NO:19]
translocation of the complex, effect of nuclear localization signal and its position (NIH 3T3 cells [4]): functioned much better

RKMLKSTRRQRR [SEQ ID NO:1]
ability to function as a PTD relative to tat (SEQ ID NO:24) and WO 01/15511 peptide (SEQ ID NO:25) (NIH 3T3 cells [5]): more efficiently

SEQ ID NO:23: a reverse isomer of a tat-derived peptide (reverse tat), Wender et al. (RRRQRRKKRGY; Human immunodeficiency virus)
efficiency of crossing the plasma membrane relative to tat (SEQ ID NO:24) (plasma membrane): about three times
